Measurements published in patent publication US11147272B2, “Pyridone compounds and agricultural and horticultural fungicides comprising the same as active ingredients” (MITSUI CHEMICALS AGRO, INC., priority 2017, dated 2021).

Tests used:
Magnaporthe grisea = test: whole plant or invertebrate; format: in vivo; details: for Test A control value class: class of control value
Alternaia brassicicola = test: Test Example C: Alternaria sooty spot on cabbage; format: in vivo; details: for Test C control value class: class of control value
Description: Seeds of a test plant (cabbage variety: Shikidori) were planted and cultivated until the cotyledons extended.
<Control Value> Control value=100{1−(n/3)}

Puccinia recondita = test: Test Example E: Brown rust on wheat; format: in vivo; details: for Test E control value class: class of control value
Phytophthora infestans = test: whole plant or invertebrate; format: in vivo; details: for Test F control value class: class of control value
Botrytis cinerea = test: Test Example B: Gray mold on tomato; details: for Test B control value class: class of control value
Plasmopara viticola = test: Test Example G: Downy mildew on vine; details: for Test G control value: 7 to 10 days after inoculation; for Test G control value class: Downy mildew on vine (Neomuscat), 2.5 ml/pot, assessed 7 to 10 days after inoculation
[1] = tested on: Colletotrichum orbiculare; test: Test Example H: Anthracnose on cucumber; details: for Test H control value: 6 to 10 days after inoculation; for Test H control value class: Anthracnose on cucumber (Sagami Hanjiro), 2.5 ml/pot, assessed 6 to 10 days after inoculation
[2] = tested on: Blumeria graminis f. sp. hordei; test: Test Example D: Powdery mildew on barley; details: for Test D control value class: class of control value
[3] = 250 ppm drug solution sprayed on test plant
[4] = 250 ppm drug solution sprayed (2.5 ml/pot), grape Neomuscat
[5] = 250 ppm drug solution sprayed (2.5 ml/pot), cucumber Sagami Hanjiro
[6] = Blast on rice, control value class
[7] = Alternaria sooty spot on cabbage, control value class
[8] = Brown rust on wheat, control value class
[9] = Late blight on tomato, control value class
[10] = Gray mold on tomato, control value class
[11] = Downy mildew on vine, 250 ppm spray
[12] = Anthracnose on cucumber, 250 ppm spray
[13] = Powdery mildew on barley, control value class
[14] = Alternaria sooty spot on cabbage

COC(C)(c1cc(Br)c(=O)n(C)c1-c1c(F)cc(F)cc1F)C(C)C (centres unmarked) [compound 432]
H (more than 50% control value): Test A control value (Magnaporthe grisea; [3]) | Test C control value (Alternaia brassicicola; [3]) | Test E control value (Puccinia recondita; [3]) | Test B control value (Botrytis cinerea; [3]) | Test H control value [1, 5] | Test D control value [2, 3]
L (50% or less control value): Test F control value (Phytophthora infestans; [3]) | Test G control value (Plasmopara viticola; [4])

CCCCCCCc1ccc(=O)n(CC)c1-c1ccc(F)cc1Cl [compound 266]
L (50% or less control value): Test A control value (Magnaporthe grisea; [6]) | Test C control value (Alternaia brassicicola; [7]) | Test F control value (Phytophthora infestans; [9]) | Test B control value (Botrytis cinerea; [10]) | Test G control value (Plasmopara viticola; [11])
H (more than 50% control value): Test E control value (Puccinia recondita; [8]) | Test H control value [1, 12] | Test D control value [2, 13]

CCn1c(-c2ccc(F)cc2Br)c(CC(C)C)cc(Br)c1=O [compound 201]
H (more than 50% control value): Test A control value (Magnaporthe grisea; [6]) | Test C control value (Alternaia brassicicola; [7]) | Test E control value (Puccinia recondita; [8]) | Test B control value (Botrytis cinerea; [10]) | Test G control value (Plasmopara viticola; [11]) | Test H control value [1, 12] | Test D control value [2, 13]
L (50% or less control value): Test F control value (Phytophthora infestans; [9])

CCn1c(-c2c(F)cc(OC)cc2F)c(C(C)(C)C)cc(Br)c1=O [compound 76]
H (more than 50% control value): Test A control value class (Magnaporthe grisea; Blast on rice) | Test C control value class (Alternaia brassicicola; [14]) | Test E control value class (Puccinia recondita; Brown rust on wheat) | Test B control value class (Botrytis cinerea; Gray mold on tomato) | Test H control value class ([1]; 250 ppm spray)
L (50% or less control value): Test F control value class (Phytophthora infestans; Late blight on tomato) | Test G control value class (Plasmopara viticola; 250 ppm spray) | Test D control value class ([2]; Powdery mildew on barley)

CCCCCCCCc1cc(Br)c(=O)n(CC)c1-c1ccc(F)cc1Cl [compound 272]
L (50% or less control value): Test A control value (Magnaporthe grisea; [6]) | Test C control value (Alternaia brassicicola; [7]) | Test F control value (Phytophthora infestans; [9]) | Test B control value (Botrytis cinerea; [10]) | Test G control value (Plasmopara viticola; [11]) | Test H control value [1, 12] | Test D control value [2, 13]
H (more than 50% control value): Test E control value (Puccinia recondita; [8])

CCOC(C)(c1cc(Cl)c(=O)n(CC)c1-c1ccc(F)cc1)C(C)C (centres unmarked) [compound 215]
L (50% or less control value): Test A control value (Magnaporthe grisea; [6]) | Test C control value (Alternaia brassicicola; [7]) | Test E control value (Puccinia recondita; [8]) | Test F control value (Phytophthora infestans; [9]) | Test B control value (Botrytis cinerea; [10]) | Test G control value (Plasmopara viticola; [11]) | Test H control value [1, 12]
H (more than 50% control value): Test D control value [2, 13]

CCn1c(-c2ccc(F)cc2)c(C(C)(O)C(C)C)cc(Cl)c1=O (centres unmarked) [compound 213]
L (50% or less control value): Test F control value (Phytophthora infestans; [9])
H (more than 50% control value): Test A control value (Magnaporthe grisea; [6]) | Test C control value (Alternaia brassicicola; [7]) | Test E control value (Puccinia recondita; [8]) | Test B control value (Botrytis cinerea; [10]) | Test G control value (Plasmopara viticola; [11]) | Test H control value [1, 12] | Test D control value [2, 13]

CCn1c(-c2ccc(O)cc2Cl)c(CC(C)C)cc(Cl)c1=O [compound 254]
L (50% or less control value): Test A control value (Magnaporthe grisea; [6]) | Test G control value (Plasmopara viticola; [11]) | Test D control value [2, 13]
H (more than 50% control value): Test C control value (Alternaia brassicicola; [7]) | Test E control value (Puccinia recondita; [8]) | Test F control value (Phytophthora infestans; [9]) | Test B control value (Botrytis cinerea; [10]) | Test H control value [1, 12]

CCc1cc(Br)c(=O)n(C)c1-c1ccc(OC)cc1C [compound 375]
H (more than 50% control value): Test C control value (Alternaia brassicicola; [3]) | Test E control value (Puccinia recondita; [3]) | Test F control value (Phytophthora infestans; [3]) | Test B control value (Botrytis cinerea; [3]) | Test G control value (Plasmopara viticola; [4]) | Test D control value [2, 3]
L (50% or less control value): Test A control value (Magnaporthe grisea; [3]) | Test H control value [1, 5]

CCn1c(-c2c(F)cc(OC)cc2F)c(CNOC)cc(Cl)c1=O [compound 114]
L (50% or less control value): Test A control value class (Magnaporthe grisea; Blast on rice) | Test F control value class (Phytophthora infestans; Late blight on tomato) | Test G control value class (Plasmopara viticola; 250 ppm spray)
H (more than 50% control value): Test C control value class (Alternaia brassicicola; [14]) | Test E control value class (Puccinia recondita; Brown rust on wheat) | Test B control value class (Botrytis cinerea; Gray mold on tomato) | Test H control value class ([1]; 250 ppm spray) | Test D control value class ([2]; Powdery mildew on barley)

CCn1c(-c2c(F)cc(OC)cc2F)c(C(C)(OC)C(C)C)cc(Cl)c1=O (racemic) [compound 110]
L (50% or less control value): Test F control value class (Phytophthora infestans; Late blight on tomato)
H (more than 50% control value): Test A control value class (Magnaporthe grisea; Blast on rice) | Test C control value class (Alternaia brassicicola; [14]) | Test E control value class (Puccinia recondita; Brown rust on wheat) | Test B control value class (Botrytis cinerea; Gray mold on tomato) | Test G control value class (Plasmopara viticola; 250 ppm spray) | Test H control value class ([1]; 250 ppm spray) | Test D control value class ([2]; Powdery mildew on barley)

CCc1ccc(=O)n(C)c1-c1ccc(OC)cc1Br [compound 354]
H (more than 50% control value): Test E control value (Puccinia recondita; [8]) | Test H control value [1, 12]
L (50% or less control value): Test A control value (Magnaporthe grisea; [6]) | Test C control value (Alternaia brassicicola; [7]) | Test F control value (Phytophthora infestans; [9]) | Test B control value (Botrytis cinerea; [10]) | Test G control value (Plasmopara viticola; [11]) | Test D control value [2, 13]

CCn1c(-c2c(F)cc(F)cc2F)c(C(C)(C)C)ccc1=O [compound 67]
H (more than 50% control value): Test C control value class (Alternaia brassicicola; [14]) | Test E control value class (Puccinia recondita; Brown rust on wheat) | Test B control value class (Botrytis cinerea; Gray mold on tomato) | Test H control value class ([1]; 250 ppm spray) | Test D control value class ([2]; Powdery mildew on barley)
L (50% or less control value): Test A control value class (Magnaporthe grisea; Blast on rice) | Test F control value class (Phytophthora infestans; Late blight on tomato) | Test G control value class (Plasmopara viticola; 250 ppm spray)

COc1cc(F)c(-c2c(C(C)(C)C)cc(Cl)c(=O)n2C)c(F)c1 [compound 85]
L (50% or less control value): Test F control value class (Phytophthora infestans; Late blight on tomato) | Test G control value class (Plasmopara viticola; 250 ppm spray) | Test D control value class ([2]; Powdery mildew on barley)
H (more than 50% control value): Test A control value class (Magnaporthe grisea; Blast on rice) | Test C control value class (Alternaia brassicicola; [14]) | Test E control value class (Puccinia recondita; Brown rust on wheat) | Test B control value class (Botrytis cinerea; Gray mold on tomato) | Test H control value class ([1]; 250 ppm spray)

CCCCc1cc(Br)c(=O)n(CC)c1-c1ccc(F)cc1Cl [compound 207]
H (more than 50% control value): Test A control value (Magnaporthe grisea; [6]) | Test C control value (Alternaia brassicicola; [7]) | Test E control value (Puccinia recondita; [8]) | Test B control value (Botrytis cinerea; [10]) | Test G control value (Plasmopara viticola; [11]) | Test H control value [1, 12] | Test D control value [2, 13]
L (50% or less control value): Test F control value (Phytophthora infestans; [9])

CCn1c(-c2c(F)cc(F)cc2F)c(C(C)(O)C2CCCC2)cc(Cl)c1=O (centres unmarked) [compound 244]
L (50% or less control value): Test F control value (Phytophthora infestans; [9]) | Test G control value (Plasmopara viticola; [11])
H (more than 50% control value): Test A control value (Magnaporthe grisea; [6]) | Test C control value (Alternaia brassicicola; [7]) | Test E control value (Puccinia recondita; [8]) | Test B control value (Botrytis cinerea; [10]) | Test H control value [1, 12] | Test D control value [2, 13]
